Experimental data published in patent US20190248765A1, “COMPOUNDS, COMPOSITIONS, AND METHODS FOR INCREASING CFTR ACTIVITY” (Proteostasis Therapeutics, Inc., priority 2016, published 2019).

Molecular target: T1, ΔF508-CFTR (Homo sapiens, UniProt P13569, DEL508-508)
T1 construct: Primary lung epithelial cells homozygous for the Cystic Fibrosis-causing ΔF508 mutation were differentiated; endogenous in cells; host or cells: primary human lung/bronchial epithelial cells (hBE) homozygous for ΔF508, differentiated at an air-liquid interface
Assay: hBE Equivalent Current (Ieq) Assay
Assay type: cell-based
Settings: Compound A at 3 uM, primary lung epithelial cells homozygous for ΔF508, 24 hours treatment
Description: ii. hBE Equivalent Current (Ieq) Assay
Primary lung epithelial cells homozygous for the Cystic Fibrosis-causing ΔF508 mutation were differentiated for a minimum of 4 weeks in an air-liquid interface on Costar 24 well HTS filter plates prior to the equivalent current (Ieq) measurements. Cells were apically mucus-washed for 30 minutes 24 h prior to treatment with compounds. The basolateral media was removed and replaced with media containing the compound of interest diluted to its final concentration from DMSO stocks. Treated cells were incubated at 37° C. and 5% CO2 for 24 hours. At the end of the treatment period, the media was changed to the Ieq experimental solution for 2 hours before the experiment and plates are maintained in a CO2-free incubator during this period. The plates containing the cells were then placed in pre-warmed heating blocks at 36° C.±0.5 for 15 minutes before measurements are taken. The transepithelial voltage (VT) and conductance (GT) were measured using a custom 24 channel current clamp (TECC-24) with 24 well electrode manifold. The Ieq assay measurements were made following additions with standardized time periods:
1. The baseline VT and GT values were measured for approximately 20 minutes.
2. Benzamil was added to block ENaC for 15 minutes.
3. Forskolin plus VX-770 were added to maximally activate ΔF508-CFTR for 27 minutes.
4. Bumetanide was added to inhibit the NaK2Cl cotransporter and shut-off secretion of chloride.
The activity data captured was the area under the curve (AUC) for the traces of the equivalent chloride current. The AUC was collected from the time of the forskolin/VX-770 addition until the inhibition by bumetanide addition. Correction in response to compound treatment was scored as the increase in the AUC for compound-treated samples over that of vehicle-treated samples.
(+ indicates activity<150% of a CFTR amplifier (Compound A) with compound at concentration shown and Compound A at 3 uM; ++ indicates activity>150% of a CFTR amplifier with compound at concentration shown and Compound A at 3 uM.

T1 sequence (P13569 with tags, fused parts or gaps DEL508-508): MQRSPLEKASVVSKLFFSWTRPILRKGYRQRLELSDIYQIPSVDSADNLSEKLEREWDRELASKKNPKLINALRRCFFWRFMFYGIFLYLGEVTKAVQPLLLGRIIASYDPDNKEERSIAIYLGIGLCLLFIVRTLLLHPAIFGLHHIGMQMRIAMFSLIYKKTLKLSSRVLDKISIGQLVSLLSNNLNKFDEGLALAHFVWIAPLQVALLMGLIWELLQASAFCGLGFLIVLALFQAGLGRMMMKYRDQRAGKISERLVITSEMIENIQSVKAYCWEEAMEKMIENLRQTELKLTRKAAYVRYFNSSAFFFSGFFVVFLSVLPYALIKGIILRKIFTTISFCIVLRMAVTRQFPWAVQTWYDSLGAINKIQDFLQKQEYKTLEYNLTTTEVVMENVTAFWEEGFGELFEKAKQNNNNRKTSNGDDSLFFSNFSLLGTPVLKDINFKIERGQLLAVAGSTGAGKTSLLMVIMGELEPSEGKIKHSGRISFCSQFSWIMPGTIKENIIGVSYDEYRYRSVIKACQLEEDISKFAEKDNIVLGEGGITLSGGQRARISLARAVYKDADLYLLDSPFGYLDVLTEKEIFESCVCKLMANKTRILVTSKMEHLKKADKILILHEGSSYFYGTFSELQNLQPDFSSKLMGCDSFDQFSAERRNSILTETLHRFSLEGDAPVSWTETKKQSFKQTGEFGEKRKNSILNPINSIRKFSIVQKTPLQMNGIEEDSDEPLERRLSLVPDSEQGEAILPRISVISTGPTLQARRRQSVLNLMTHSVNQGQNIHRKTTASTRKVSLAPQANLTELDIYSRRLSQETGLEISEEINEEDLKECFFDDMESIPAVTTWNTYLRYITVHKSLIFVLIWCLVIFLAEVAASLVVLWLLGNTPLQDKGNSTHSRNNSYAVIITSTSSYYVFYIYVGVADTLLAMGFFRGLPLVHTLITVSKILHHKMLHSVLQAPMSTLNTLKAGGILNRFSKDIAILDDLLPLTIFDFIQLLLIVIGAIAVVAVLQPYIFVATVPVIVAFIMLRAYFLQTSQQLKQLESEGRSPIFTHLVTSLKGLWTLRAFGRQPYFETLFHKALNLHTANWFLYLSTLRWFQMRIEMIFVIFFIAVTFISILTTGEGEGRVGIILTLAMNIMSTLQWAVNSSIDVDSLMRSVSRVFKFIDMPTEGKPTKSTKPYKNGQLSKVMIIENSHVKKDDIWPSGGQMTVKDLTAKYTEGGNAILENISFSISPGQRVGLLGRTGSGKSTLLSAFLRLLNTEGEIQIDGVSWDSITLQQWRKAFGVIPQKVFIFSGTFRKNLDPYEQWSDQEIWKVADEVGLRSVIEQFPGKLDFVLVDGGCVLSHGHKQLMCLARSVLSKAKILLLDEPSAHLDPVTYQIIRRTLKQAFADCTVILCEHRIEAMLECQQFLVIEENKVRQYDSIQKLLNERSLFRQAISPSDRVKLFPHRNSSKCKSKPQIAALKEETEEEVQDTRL

| Structure (SMILES) | Activity (AUC of equivalent chloride current, relative to CFTR amplifier Compound A) (compound at 3 μM) | Activity (AUC of equivalent chloride current, relative to CFTR amplifier Compound A) (compound at 10 μM) |
| --- | --- | --- |
| COc1cccc(-c2ccc(=O)n(C(C)c3nc4ccccc4o3)n2)c1 (stereo not shown) [Compound 1, 2-[1-(1,3-benzoxazol-2-yl)ethyl]-6-(3-methoxyphenyl)-2,3-dihydropyridazin-3-one] | + (activity<150% of a CFTR amplifier (Compound A) with compound at concentration shown and Compound A at 3 uM) | + (activity<150% of a CFTR amplifier (Compound A) with compound at concentration shown and Compound A at 3 uM) |
| COc1cccc(-c2ccc(=O)n(C(C)c3nc4ccccc4[nH]3)n2)c1 (stereo not shown) [Compound 2, 2-[1-(1H-1,3-benzodiazol-2-yl)ethyl]-6-(3-methoxyphenyl)-2,3-dihydropyridazin-3-one] | – | + (activity<150% of a CFTR amplifier (Compound A) with compound at concentration shown and Compound A at 3 uM) |
| COc1cccc(-c2ccc(=O)n(C(C)c3nc4cc(C(F)(F)F)ccc4[nH]3)n2)c1 (stereo not shown) [Compound 3, 6-(3-Methoxyphenyl)-2-(1-(5-(trifluoromethyl)-1H-benzo[d]imidazol-2-yl)ethyl)pyridazin-3(2H)-one] | ++ (activity>150% of a CFTR amplifier with compound at concentration shown and Compound A at 3 uM) | ++ (activity>150% of a CFTR amplifier with compound at concentration shown and Compound A at 3 uM) |
| COc1cccc(-c2ccc(=O)n(C(C)c3nc4cc(C(C)(C)C)ccc4[nH]3)n2)c1 (stereo not shown) [Compound 4, 2-(1-(5-(tert-Butyl)-1H-benzo[d]imidazol-2-yl)ethyl)-6-(3-methoxyphenyl)pyridazin-3(2H)-one] | + (activity<150% of a CFTR amplifier (Compound A) with compound at concentration shown and Compound A at 3 uM) | + (activity<150% of a CFTR amplifier (Compound A) with compound at concentration shown and Compound A at 3 uM) |
| COc1cccc(-c2ccc(=O)n(C(C)c3nc4cc(Cl)ccc4[nH]3)n2)c1 (stereo not shown) [Compound 5, 2-(1-(5-Chloro-1H-benzo[d]imidazol-2-yl)ethyl)-6-(3-methoxyphenyl)pyridazin-3(2H)-one] | + (activity<150% of a CFTR amplifier (Compound A) with compound at concentration shown and Compound A at 3 uM) | + (activity<150% of a CFTR amplifier (Compound A) with compound at concentration shown and Compound A at 3 uM) |
| CC(c1nc2cc(C(F)(F)F)ccc2[nH]1)n1nc(-c2cccc(Cl)c2)ccc1=O (stereo not shown) [Compound 6, 6-(3-Chlorophenyl)-2-(1-(5-(trifluoromethyl)-1H-benzo[d]imidazol-2-yl)ethyl)pyridazin-3(2H)-one] | ++ (activity>150% of a CFTR amplifier with compound at concentration shown and Compound A at 3 uM) | ++ (activity>150% of a CFTR amplifier with compound at concentration shown and Compound A at 3 uM) |
| COc1cccc(-c2ccc(=O)n(C(C)c3nc4nc(C(F)(F)F)ccc4[nH]3)n2)c1 (stereo not shown) [Compound 7, 6-(3-Methoxyphenyl)-2-(1-(5-(trifluoromethyl)-1H-imidazo[4,5-b]pyridin-2-yl)ethyl)pyridazin-3(2H)-one] | + (activity<150% of a CFTR amplifier (Compound A) with compound at concentration shown and Compound A at 3 uM) | + (activity<150% of a CFTR amplifier (Compound A) with compound at concentration shown and Compound A at 3 uM) |
| COc1cccc(-c2ccc(=O)n(C(C)c3nc4cc(C(F)(F)F)cnc4[nH]3)n2)c1 (stereo not shown) [Compound 8, 6-(3-Methoxyphenyl)-2-(1-(6-(trifluoromethyl)-3H-imidazo[4,5-b]pyridin-2-yl)ethyl)pyridazin-3(2H)-one] | + (activity<150% of a CFTR amplifier (Compound A) with compound at concentration shown and Compound A at 3 uM) | + (activity<150% of a CFTR amplifier (Compound A) with compound at concentration shown and Compound A at 3 uM) |
| COc1cccc(-c2ccc(=O)n(C(C)c3nc4cc(Cl)c(Cl)cc4[nH]3)n2)c1 (stereo not shown) [Compound 9, 2-(1-(5,6-Dichloro-1H-benzo[d]imidazol-2-yl)ethyl)-6-(3-methoxyphenyl)pyridazin-3(2H)-one] | ++ (activity>150% of a CFTR amplifier with compound at concentration shown and Compound A at 3 uM) | ++ (activity>150% of a CFTR amplifier with compound at concentration shown and Compound A at 3 uM) |
| CC(c1nc2cc(Cl)c(Cl)cc2[nH]1)n1nc(-c2cccc(Cl)c2)ccc1=O (stereo not shown) [Compound 10, 6-(3-Chlorophenyl)-2-(1-(5,6-dichloro-1H-benzo[d]imidazol-2-yl)ethyl)pyridazin-3(2H)-one] | + (activity<150% of a CFTR amplifier (Compound A) with compound at concentration shown and Compound A at 3 uM) | + (activity<150% of a CFTR amplifier (Compound A) with compound at concentration shown and Compound A at 3 uM) |
| COc1cccc(-c2ccc(=O)n(C(C)c3nnc(-c4ccccc4)[nH]3)n2)c1 (stereo not shown) [Compound 11, 6-(3-Methoxyphenyl)-2-[1-(5-phenyl-4H-1,2,4-triazol-3-yl)ethyl]-2,3-dihydropyridazin-3-one] | – | + (activity<150% of a CFTR amplifier (Compound A) with compound at concentration shown and Compound A at 3 uM) |
| COc1cccc(-c2ccc(=O)n(C(C)c3nnc(-c4ccc(C(F)(F)F)cc4)[nH]3)n2)c1 (stereo not shown) [Compound 12, 6-(3-Methoxyphenyl)-2-(1-(5-(4-(trifluoromethyl)phenyl)-4H-1,2,4-triazol-3-yl)ethyl)pyridazin-3(2H)-one] | – | + (activity<150% of a CFTR amplifier (Compound A) with compound at concentration shown and Compound A at 3 uM) |
| COc1cccc(-c2ccc(=O)n(C(C)c3nnc(-c4cccc(C(F)(F)F)c4)[nH]3)n2)c1 (stereo not shown) [Compound 13, 6-(3-Methoxyphenyl)-2-(1-(5-(3-(trifluoromethyl)phenyl)-4H-1,2,4-triazol-3-yl)ethyl)pyridazin-3(2H)-one] | – | + (activity<150% of a CFTR amplifier (Compound A) with compound at concentration shown and Compound A at 3 uM) |
